From patent US11510957B2, “Method for treating or alleviating autoimmune-related diseases” (priority 2016, dated 2022)

What was measured:
[1] = test system: IL-17 secretion in EL4 murine lymphoma cells; assay: Anti-IL-17 secretion in EL4 (murine lymphoma) cells induced with PMA and Ionomycin, ELISA; assay type: cell-based; details: PMA 10 ng/ml + Ionomycin 5 ng/ml, 18 hours
Experimental: EL4 cell line is murine lymphoma cell purchased from Bioresource Collection and Research Center (referred to as BCRC) and cultured in RPMI 1640 medium which contains 10% Fetal Bovine Serum (referred to as FBS), 1.5 g Sodium bicarbonate, 1 mM Sodium pyruvate, lx non-essential amino acids (referred to as NEAA), and 0.5 mM 2-Mecaptoethanol (referred to as 2-ME).
EL4 lymphoma cells were seeded into 96-well plate by 1×10^5 cells per well and 10 μl of the extract of A. tsao-ko HE-06 was added to each well and incubated at 37° C. in 5% CO2 cell incubator for 1 hour. Then, Phorbol-12-myristate-13-acetate (referred to as PMA or TPA) and Ionomycin were added to be the stimulants that induce activation of lymphoma cells, in which the final concentration of PMA was 10 ng/ml and the final concentration of Ionomycin was 5 ng/ml, and additional 18 hours incubation was executed. In the above test, the group of adding both PMA (final concentration of 10 ng/ml) and Ionomycin (final concentration of 5 ng/ml) was considered as the control group.
Thereafter, the cell-containing 96-well plate was centrifuged at 1200 rpm for 5 minutes and the supernatant was collected and transferred to the new 96-well plate. […] 150 μl DMSO was then added to dissolve the […] and the absorbance of 570 nm was measured to assess the cell viability. […]

[2] = test system: IMQ-induced psoriasis-like dermatitis in BALB/c mice; assay: Imiquimod (IMQ)-induced psoriasis-like dermatitis mouse model, skin irritation score; assay type: in vivo; details: 100 mg/kg; 6 days; FIG. 5D
Experimental: The 8 weeks BALB/c male mice were purchased from BioLASCO Taiwan Co., Ltd. After acclimation and quarantine, the batch of mice were approximately 9-10 weeks of age at the time of performing the experiment of IMQ-induced psoriasis-like dermatitis. The experimental animals were bred in the environment: 12 hours light and 12 hours dark, room temperature of 23±2° C., and relative humidity of 40-70%. During feeding, animals were free to obtain adequate food and drinking water. In addition, during the quarantine and testing period, the animals were observed and recorded by the veterinarian and the experimental staff of ITRI to ensure health of these experimental animals.
Then, the hair on the back of each mouse was shaved, and the shaving area was about 4*2 cm^2. Since day 0, 3.125 mg imiquimod (IMQ) was administered by smearing to the skin of shaved area of each mouse daily for consecutive 6 days. […]
The above-mentioned degree of skin irritation is based on Psoriasis Area and Severity Index (PAST), in which erythema, thickening, and scaling of skin were assessed and analyzed for judging the scale. […]
The mean value and standard error of mean (S.E.M.) of each group were calculated by accumulating the index observed in the same mouse, and t-test statistics was used to distinguish the differences between the groups.

[3] = test system: EAE in C57BL/6 mice; assay: Experimental autoimmune encephalomyelitis (EAE) mouse model, clinical EAE score; assay type: in vivo; details: 30 mg/kg and 100 mg/kg; 14 days
Experimental: The experimental animals, female C57BL/6 mice, aged about 8 weeks, were purchased from National Laboratory Animal Center (Tainan). After acclimation and quarantine, the mice were approximately 10-12 weeks of age at the time of performing the EAE experiments. The experimental animals were bred in the environment: 12 hours light and 12 hours dark, room temperature of 23±2° C., and relative humidity of 40-70%. During feeding, animals were free to obtain adequate food and drinking water, but after the onset of EAE, the soaked soft feed and agar gel jelly were especially given in the bottom of the feeding cage, so that the onset animals were easier to feed and drink. In addition, during the quarantine and testing period, the animals were observed and recorded by the veterinarian and the experimental staff of ITRI to ensure health of these experimental animals.
The foregoing C57BL/6 mice were administered subcutaneously with 200 μl emulsion including 200 μg MOG35-55 peptide and 400 μg Mycobacterium tuberculosis H37Ra, followed by intraperitoneal injection of 500 ng pertussis toxin for induction of EAE. From the 7th day after induction, the EAE clinical symptoms were recorded daily according to the recognized Ataxia score (grading of nervous system disorder) and EAE score as the scoring criteria (description of Ataxia score and EAE score are as follows). […]

[4] = test system: TNF-α secretion in LPS-induced acute inflammatory mice; assay: TNF-α secretion in LPS-induced acute inflammatory BALB/c mouse model, plasma ELISA; assay type: in vivo; details: FIG. 5B
Experimental: The 6-8 weeks BALB/c male mice were purchased from BioLASCO Taiwan Co., Ltd. In addition to make the feeding condition meeting with national experimental animal guidelines, the batch of mice were marked, sub-cage and weighing soon after acquisition. Then, these mice were placed to the quarantine room of general area for a week of quarantine work. During the quarantine period, observation of mobility and environmental adaptability was performed, and after assessment to be normal, these mice were transferred into the feeding area for experimental implementation. […]
Then the mice were fasted for 2 to 4 hours but regular drinking water was still supplied. […] After administration, the clinical symptoms of the mice were observed and recorded. […] After administration, the clinical symptoms of the mice were observed and recorded.
After 1.5 hours LPS stimulation, the mice were euthanized by excessive CO2 and the whole blood was collected by cardiac puncture blood sampling. Next, the plasma was collected after centrifugation at 6000 rpm and 4° C. for 10 minutes and then TNF-α secretion were analyzed.
The TNF-α secretion in plasma was analyzed according to the following procedure shown in Duoset® ELISA kit. […] Finally, 50 μl of Stop Solution (1N HCl) was added to each well to stop the color reaction, and the absorbance of OD450 nm was measured.

## O=CC1=CC[C@H](O)[C@@H]2CCC[C@H]12 [Tsaokoin (TK), tsaokoin]
[1]
  IC50, concentration causing 50% IL-17 secretion inhibition, EL4: 12.1 µg/mL
[2]
  clinical symptoms of IMQ-induced psoriasis-like dermatitis: significantly alleviate the clinical symptoms of IMQ-induced psoriasis-like dermatitis
[3]
  effect on progress of EAE (EAE score): slow down the progress of EAE, and present a dose-dependent effect
[4]
  inhibition of TNF-α secretion (in words): significantly inhibit the secretion of TNF-α
